Tests used:
[1] = cited from earlier work
[2] = cited from earlier work; remark: listed apart in the source
[3] = test system: Diet-Induced Obesity Rat Model; experiment: Weight loss experiments in diet-induced obesity rat model; assay type: in vivo; settings: for difference to control group E (weight loss effect): SPSS12.0 analysis, p<0.01, versus control group E on normal feed; for average weight variation (g) after / average weight variation (g) before: obese male rats; for average weight variation (g) before: n=10 per group
Text: Male weaned rats (each weighs 50 g) divided into 5 groups with each group 10 rats.
The rats are orally administrated L-carnitine tartrate (Group A), L-hydroxy citric acid (Group B), L-carnitine tartrate and L-hydroxy citric acid (Group C), L-carnitine tartrate and L-hydroxy citric acid and asiaticosides (Group D), respectively. For comparison, a control group E is also set herewith. The oral administration dosage is 5 times that for human (kg/day). The rats are fed with feed comprising one of the active components set forth above for continuous 30 days.
Feed preparation: the feed comprises (a) basic feed consisting of 20 wt % of barley meal, 10 wt % of dehydrated vegetables, 20 wt % of pulse flour, 1 wt % of yeast, 5 wt % of bone dust, 16 wt % of cornmeal, 16 wt % of wheat skin, 10 wt % of fish meal and 2 wt % of salt, and (b) nutritive feed selected from the group consisting of powdered milk, lard, egg and soybean sprout. 10 g of powdered milk, 10 g of lard, one egg and 250 g of soybean sprout are added per 100 g of basic feed.
In the first and second week, each rat is fed 13 g of feed per day, with an increase in the amount of the feed of 2 g every week until the sixth week ([…]). The rats are fed twice a day. After the rats are fed with the high-fat, high-nutrition feed above for 45 days, the weight of the rat fed with such feed is nearly two times that of the rat in the control group fed with normal feed (the difference may be more than 100 g).
After the establishment of the rat model, rats in different groups are orally administrated L-carnitine tartrate (Group A), L-hydroxy citric acid (Group B), L-carnitine tartrate and L-hydroxy citric acid (Group C), L-carnitine tartrate and L-hydroxy citric acid and asiaticosides (Group D). The components are blended in the feed. No additional component is added to the normal feed fed the control group.
The experiment data is analyzed by software SPSS12.0 edition, and the result are shown as below: […]

[4] = after minus before, 30 days oral administration in feed, dosage 5 times that for human
[5] = fat pad around testicle and kidney, after 30 days oral administration in feed, dosage 5 times that for human
[6] = fat pad around testicle and kidney, after minus before, 30 days oral administration in feed
[7] = fat pad around testicle and kidney, before the 30 days of oral administration in feed (baseline)
[8] = after 30 days oral administration in feed, dosage 5 times that for human
[9] = before the 30 days of oral administration in feed (baseline)

Row | SMILES | solubility in water [1] | in vivo half-life [2] | difference to control group E (weight loss effect) [3] | average weight variation (g) variation [3, 4] | average fat pad weight [3, 5] | average fat pad weight [3, 6] | average fat pad weight [3, 7] | average weight variation (g) after [3, 8] | average weight variation (g) before [3, 9] | average percentage body fat variation (g) after [3, 5] | average percentage body fat variation (g) variation [3, 6] | average percentage body fat variation (g) before [3, 7]
1 | C[N+](C)(C)C[C@H](O)CC(=O)[O-] [L-carnitine] | easy to dissolve in water | 8.4 h |  |  |  |  |  |  |  |  |  | 
2 | C[N+](C)(C)C[C@H](O)CC(=O)[O-].O=C(O)C(O)C(O)C(=O)O [Group A, L-carnitine tartrate] |  |  | significant | -5 g | 3.93 g | -2.3 g | 6.23 g | 98.28 g | 103.28 g |  |  | 
3 | O=C(O)CC(O)(C(=O)O)C(O)C(=O)O [Group B, L-hydroxy citric acid] |  |  | significant | -5.8 g |  |  |  | 97.32 g | 103.12 g | 3.81 g | -2.4 g | 6.21 g

Reference: patent US20090169490A1, “COMPOSITION AND METHOD FOR WEIGHT LOSS” (Guangzhou Konzern Pharmaceutical Co., Ltd, priority 2007, published 2009)
